Drawing on US12594276B2, “Inhibitors of human immunodeficiency virus replication” (ViiV Healthcare UK (No.5) Limited, priority 2024, dated 2026), this text covers EC50 and CC50 for 4 compounds.

The subject of data set [1] is recombinant NL4-3 virus (nef section replaced with Renilla luciferase gene) in MT-2 cells. Kind of data set: HIV cell culture assay (antiviral activity, luciferase readout). In kind it is cell-based. To be noted: Renilla, NL43, MT-2 cells infected for 4-5 days with recombinant NL4-3 Renilla luciferase virus. In short, it runs like this: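 The reporter virus was produced by transfecting 293T cells with the NL4-3 nef/Renilla luciferase proviral clone. MT-2 cells were infected for 4–5 days with serial compound dilutions present. Luciferase was read with a live-cell substrate, and EC50 came from the exponential median-effect equation.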

Data set [2] can be described thus: Compound cytotoxicity, XTT-based colorimetric assay. The data set is classed as cell-based. To be noted: human; uninfected MT2 cells, day 4, XTT; read-out: CC50. In short, it runs like this:
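Uninfected MT2 cells were treated with compound under the same protocol as the antiviral assay. Viability was read on day 4 with an XTT colorimetric assay, from which CC50 values were derived.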

Turning to `C[C@@H]1CN(Cc2cc(C3CCC(F)(F)CC3)nc3nc([C@H](Cc4cc(F)cc(F)c4)NC(=O)Cn4nc(C(F)F)c5c4C(F)(F)[C@@H]4C[C@H]54)n(-c4ccc(Cl)c5c(NS(C)(=O)=O)nn(CCN6CCC(F)CC6)c45)c(=O)c23)C[C@H](C)O1` (atropisomer, axis not shown; (P)) [Example 527, N-[(1S)-1-[(3P)-3-{4-chloro-1-[2-(4-fluoropiperidin-1-yl)ethyl]-3-methanesulfonamido-1H-indazol-7-yl}-7-(4,4-difluorocyclohexyl)-5-{[(2R,6S)-2,6-dimethylmorpholin-4-yl]methyl}-4-oxo-3H,4H-pyrido[2,3-d]pyrimidin-2-yl]-2-(3,5-difluorophenyl)ethyl]-2-[(2S,4R)-9-(difluoromethyl)-5,5-difluoro-7,8-diazatricyclo[4.3.0.0^2,^4]nona-1(6),8-dien-7-yl]acetamide], the 50% effective concentration (EC50) in data set [1] was 0.012 nM. Moreover, the CC50 at 4 days in data set [2] was over 20 nM.
The like results for `C[C@@H]1CN(CCn2nc(NS(C)(=O)=O)c3c(Cl)ccc(-n4c([C@H](Cc5cc(F)cc(F)c5)NC(=O)Cn5nc(C(F)F)c6c5C(F)(F)[C@@H]5C[C@H]65)nc5nc(C6CCC(F)(F)CC6)cc(CN6C[C@@H](C)O[C@@H](C)C6)c5c4=O)c32)C[C@H](C)O1` (atropisomer, axis not shown; (P)) [Example 528, N-[(1S)-1-[(3P)-3-(4-chloro-1-{2-[(2R,6S)-2,6-dimethylmorpholin-4-yl]ethyl}-3-methanesulfonamido-1H-indazol-7-yl)-7-(4,4-difluorocyclohexyl)-5-{[(2R,6S)-2,6-dimethylmorpholin-4-yl]methyl}-4-oxo-3H,4H-pyrido[2,3-d]pyrimidin-2-yl]-2-(3,5-difluorophenyl)ethyl]-2-[(2S,4R)-9-(difluoromethyl)-5,5-difluoro-7,8-diazatricyclo[4.3.0.0^2,^4]nona-1(6),8-dien-7-yl]acetamide] were, in that order, 0.006 nM and over 20 nM.
The like results for `C[C@@H]1CN(Cc2cc(C3CCC(F)(F)CC3)nc3nc([C@H](Cc4cc(F)cc(F)c4)NC(=O)Cn4nc(C(F)F)c5c4C(F)(F)[C@@H]4C[C@H]54)n(-c4ccc(Cl)c5c(NS(C)(=O)=O)nn(CCN6CC(C)(C)OC(C)(C)C6)c45)c(=O)c23)C[C@H](C)O1` (atropisomer, axis not shown; (P)) [Example 529, N-[(1S)-1-[(3P)-3-{4-chloro-3-methanesulfonamido-1-[2-(2,2,6,6-tetramethylmorpholin-4-yl)ethyl]-1H-indazol-7-yl}-7-(4,4-difluorocyclohexyl)-5-{[(2R,6S)-2,6-dimethylmorpholin-4-yl]methyl}-4-oxo-3H,4H-pyrido[2,3-d]pyrimidin-2-yl]-2-(3,5-difluorophenyl)ethyl]-2-[(2S,4R)-9-(difluoromethyl)-5,5-difluoro-7,8-diazatricyclo[4.3.0.0^2,4]nona-1(6),8-dien-7-yl]acetamide] were, in that order, 0.017 nM and over 1000 nM.
The like results for `COCCCn1nc(NS(C)(=O)=O)c2c(Cl)ccc(-n3c([C@H](Cc4cc(F)cc(F)c4)NC(=O)Cn4nc(C(F)F)c5c4C(F)(F)[C@@H]4C[C@H]54)nc4nc(C5CCC(F)(F)CC5)cc(CN5C[C@@H](F)[C@@H](F)C5)c4c3=O)c21` (atropisomer, axis not shown; (P)) [Example 530, N-[(1S)-1-[(3P)-3-[4-chloro-3-methanesulfonamido-1-(3-methoxypropyl)-1H-indazol-7-yl]-7-(4,4-difluorocyclohexyl)-5-{[(3R,4S)-3,4-difluoropyrrolidin-1-yl]methyl}-4-oxo-3H,4H-pyrido[2,3-d]pyrimidin-2-yl]-2-(3,5-difluorophenyl)ethyl]-2-[(2S,4R)-9-(difluoromethyl)-5,5-difluoro-7,8-diazatricyclo[4.3.0.0^2,^4]nona-1(6),8-dien-7-yl]acetamide] were, in that order, 0.008 nM and over 20 nM.
